From patent US20230181678A1, “NOVEL ANTIBACTERIAL PEPTIDE OR PEPTIDE ANALOG AND USE THEREOF” (CAMP THERAPEUTICS INC., priority 2020, published 2023)
* marks the point of attachment. Octanoyl = CCCCCCCC(=O)*; Hexanoyl = CCCCCC(=O)*

Columns and labels:
E. coli ATCC 25922 = assay: MIC assay, sensitizing effect of peptide on antibacterial agents; format: cell-based
Method: All MIC assay experiments were performed using the Clinical and Laboratory Standards Institute (CLSI) guidelines (Clinical & Laboratory Standards Institute: CLSI Guidelines, 2017). Bacterial cells cultured overnight were diluted to 0.05 McFarland standard using McFarland (KIT […] PLUS INSTRUMENT, Biomerieux) in Muller Hinton II Broth (cation-adjusted) (Difco). The cells were inoculated at 1.5×10^5 CFU per 200 μL solution of each well in a 96-well plate. The peptide and the antibiotic were prepared using 2-fold serially diluted concentrations. […] Incubation was performed at 37° C. for 18 hours, and then absorbance was measured at 600 nm using an EPOCH2 microplate reader (BioTek, Winooski, USA) to calculate a MIC value. The MIC value was defined as a concentration of the antibiotic or peptide at which bacterial growth was inhibited to a level of lower than 10% growth of the positive control. Fold reduction was calculated using the following expression.
(§1) Fold reduction=MIC of antibiotic alone/MIC of antibiotic in presence of sensitizing peptide
Using the same MIC assay method as in Example 1, sensitizing effects of the peptide L9P (CMP1107, 1 ug/ml), which is known as a conventional sensitive AMP, and CMP1401 (1 ug/ml) were compared on existing antibacterial agents against E. coli ATCC 25922 (FIG. 5A).
In addition, MIC screening was used to compare sensitizing effects of the competitive drug SPR741 and the peptide CMP1401 or CMP1501 on the existing antibacterial agents against E. coli ATCC 25922 (FIGS. 5B and 5C). SPR741, which is a previously known polymyxin B (PMB) analog, is a sensitive AMP, and is a drug that has been identified through preclinical experiments to be effective against Gram-negative bacteria in a case of being used together with existing Gram-positive antibiotics.
(§2) ATCC 25922, A.b. ATCC 17978, K.p. ATCC 700603, and P.a. ATCC 27853, or CRE (E.c. NDM-1, K.p. NDM-1, or K.p. KPC) (FIGS. 9 and 10).

[1] = test system: outer membrane of E. coli NDM-1; assay: Enzyme assay, outer membrane leakage (β-lactamase release, CENTA); format: cell-based; conditions: peptide 0.63 or 1.30 uM, 37° C., 1 h; 200 μM CENTA
Method: (§3) It was observed, through an enzyme assay, whether the sensitizing peptide destroyed the outer and inner membranes of Gram-negative bacteria. In the presence of the sensitizing peptide, it was observed whether in a case where 1.5 mM ONPG was used together therewith, β-galactosidase was released from E. coli ATCC 25922 for the inner membrane, and whether in a case where 200 μM CENTA was used together therewith, β-lactamase was released from E. coli NDM-1 for the outer membrane.
Specifically, to determine leakage of the outer membrane, activity of the β-lactamase released from the outer membrane was evaluated. New Delhi metallo-β-lactamase-1 (NDm-1)-producing E. coli cells were washed three times with DPBS and suspended in the same buffer. The cells were diluted to an OD600 of 0.2 and treated with the peptide at a concentration of 0.63 or 1.30 uM at 37° C. for 1 h. After centrifugation, the supernatant was incubated with 200 μM CENTATM β-lactamase substrate at 37° C. for 1 hour. An optical density was obtained by measuring absorbance of a product of enzyme reaction at 405 nm using a microplate reader (Molecular Devices Co., Menlo Park, Calif.).
The results are illustrated in FIGS. 12A and 12B. The y-axis is absorbance measured at 405 nm, and higher absorbance is observed as a higher amount of β-lactamase is released due to destruction of the membrane.

[2] = test system: inner membrane of E. coli ATCC 25922; assay: Enzyme assay, inner membrane leakage (β-galactosidase release, ONPG); format: cell-based; conditions: 1.5 mM ONPG
Method: as §3
To determine leakage of the inner membrane, release of the cytoplasmic enzyme β-galactosidase was evaluated. The bacteria were diluted to OD600=1 and 1.5 mM ONPG (O-nitrophenyl-β-D-galactopyranoside) was added. Absorbance of a product of enzyme reaction was measured at 420 nm. The other procedures were carried out in the same manner as in the experiment for outer membrane destruction.

[3] = test system: Acinetobacter baumannii ATCC 17978; assay: MIC assay, sensitizing effect of peptide on antibiotics; format: cell-based; conditions: for MIC reduction effect (fold reduction) of erythromycin: peptide 0.4 uM with erythromycin vs erythromycin alone; for sensitizing ability to erythromycin and novobiocin: recap of Example 1
Method: Each peptide at a concentration of 0.4 uM was used together with the two gram-positive antibiotics erythromycin and novobiocin to identify their effect on Acinetobacter baumannii ATCC 17978 (MIC assay). Acinetobacter baumannii, which is Gram-negative bacteria commonly classified as an opportunistic pathogen, is a human-infecting bacterium with a high probability of nosocomial infection because it has broad-spectrum antibacterial resistance and is able to survive for a long time even in a low-humidity environment. For each of the gram-positive antibiotics, as compared with MIC of each antibiotic in a case of being used alone, fold reduction of MIC of each antibiotic was measured in a case where each antibiotic was used together with each peptide.
All MIC assay experiments were performed using the Clinical and Laboratory Standards Institute (CLSI) guidelines (Clinical & Laboratory Standards Institute: CLSI Guidelines, 2017). […] The cells were inoculated at 1.5×10^5 CFU per 200 μL solution of each well in a 96-well plate. The peptide and the antibiotic were prepared using 2-fold serially diluted concentrations. […] Incubation was performed at 37° C. for 18 hours, and then absorbance was measured at 600 nm using an EPOCH2 microplate reader (BioTek, Winooski, USA) to calculate a MIC value. […] Fold reduction was calculated using the following expression.
as §1
The same MIC assay method as in Example 3 was used.
as §2

Gram-negative bacteria = conditions: cited from earlier work
host cells = conditions: cited from earlier work
[4] = test system: Acinetobacter baumannii ATCC 17978; assay: MIC assay, sensitizing effect of peptide on antibiotics; format: cell-based; conditions: peptide 0.31 μM

OctA-DabDabALDabLADabDabPLDabLLDab-NH2 [CMP1501]
sensitizing effect on existing antibacterial agents compared with SPR741 (E. coli ATCC 25922; FIGS. 5B and 5C): almost the same or much better sensitizing effect
sensitizing effects on rifampicin and linezolid (E. coli ATCC 25922; peptide 0.5 ug/ml): excellent sensitizing effects
sensitizing effect compared with SPR741 at half its concentration (E. coli ATCC 25922; peptide concentration decreased by half as compared with SPR741, FIG. 5C): equal or superior effect

OctA-KKLLKLLKKPLKLLK-NH2 (Octanoyl-KKLLKLLKKPLKLLK-NH2; SMILES CCCCCCCC(=O)N[C@@H](CCCCN)C(=O)N[C@@H](CCCCN)C(=O)N[C@@H](CC(C)C)C(=O)N[C@@H](CC(C)C)C(=O)N[C@@H](CCCCN)C(=O)N[C@@H](CC(C)C)C(=O)N[C@@H](CC(C)C)C(=O)N[C@@H](CCCCN)C(=O)N[C@@H](CCCCN)C(=O)N1CCC[C@H]1C(=O)N[C@@H](CC(C)C)C(=O)N[C@@H](CCCCN)C(=O)N[C@@H](CC(C)C)C(=O)N[C@@H](CC(C)C)C(=O)N[C@@H](CCCCN)C(N)=O) [CMP1407]
destruction of outer membrane (β-lactamase release) [1]: did not destroy these membranes
destruction of inner membrane (β-galactosidase release) [2]: did not destroy these membranes

Ac-KKLLKLAKKPLKLLK-NH2 [CMP1307]
MIC reduction effect (fold reduction) of erythromycin [3]: 8 times
sensitizing ability to erythromycin and novobiocin [3]: excellent sensitizing ability

Ac-KKALKLLKKPLKLLK-NH2 [CMP1303]
MIC reduction effect (fold reduction) of erythromycin [3]: 8 times

Ac-KLLKLLKKPLKLLK-NH2 [CMP1107]
efficacy against E. coli (Gram-negative bacteria; Korean Patent No. 1811437): weak efficacy against E. coli
destruction of membranes of Gram-negative bacteria (known property) (Gram-negative bacteria; previously known sensitizing peptide): known to not destroy the membranes of Gram-negative bacteria
toxicity to host cells (host cells): low toxicity to host cells

HexA-KKALKLAKKPLKLLK-NH2 (Hexanoyl-KKALKLAKKPLKLLK-NH2) [CMP1406]
sensitizing effect for fusidic acid ([4]; vs fusidic acid alone): 32 times
sensitizing effect for novobiocin ([4]; vs novobiocin alone): 8 times
sensitizing effect for rifampicin ([4]; vs rifampicin alone): 8 times

Ac-AKLLKLLKKPLKLLK-NH2 [CMP1301]
sensitizing ability to erythromycin and novobiocin [3]: excellent sensitizing ability

Ac-KKLLKLLKKPLKLLK-NH2 [CMP1203]
MIC reduction effect (fold reduction) of erythromycin [3]: two times
